Reference: US9695155B2, “Herbicidal substituted pyrimidinyloxy benzene compounds” (E. I. DU PONT DE NEMOURS AND COMPANY, priority 2013, dated 2017)

Columns and labels:
[1] = test system: large (Lg) crabgrass; test: Test C postemergence; format: in vivo, Digitaria sanguinalis; settings: Digitaria sanguinalis, post-emergence
Outline: (§1)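 Visual ratings on a 0–100 scale (100 = complete control) were made versus untreated controls after 13–15 greenhouse days. Chemicals in a surfactant-containing non-phytotoxic solvent were applied either preemergence to seeds in loam–sand soil or postemergence to 1- to 4-leaf plants 2–18 cm tall.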

[2] = test system: Heteranthera limosa; test: Test B flooded paddy test; format: in vivo; settings: Heteranthera limosa, Flood, 250 g ai/ha; 0 to 100 scale where 0 is no effect and 100 is complete control; read-out: Plant response rating, Ducksalad
Outline: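 Compound added straight to paddy water, with pots kept flooded 3 cm above soil, on plants grown to the 2-leaf stage. Visual scoring 0-100 (100 = complete control) against untreated controls after 13 to 15 greenhouse days.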

[3] = test system: pigweed; test: Test A postemergence; format: in vivo, Amaranthus retroflexus; settings: Amaranthus retroflexus, post-emergence, 0 to 100 scale where 0 is no effect and 100 is complete control
Outline: (§2)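 Scoring: eye-based comparison with untreated controls, 0 for no effect through 100 for complete control, at about day 10. Treatments: directed soil spray preemergence; foliar spray postemergence on 2–10 cm plants at the one- to two-leaf stage. Medium: loam soil with sand.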

[4] = test system: morningglory; test: Test C preemergence; format: in vivo, Ipomoea coccinea; settings: Ipomoea, pre-emergence, preemergence, read-out: Morningglory plant response rating
Outline: as §1

[5] = test system: giant foxtail; test: Test A preemergence; format: in vivo, Setaria faberii; settings: Setaria faberi, pre-emergence, 240 h, 0 to 100 scale where 0 is no effect and 100 is complete control
Outline: as §2

[6] = test system: johnsongrass; test: Test C preemergence; format: in vivo, Sorghum halepense; settings: Sorghum halepense, pre-emergence, preemergence, read-out: Johnsongrass plant response rating
Outline: as §1

[7] = test system: oilseed rape; test: Test C preemergence; format: in vivo, Brassica napus; settings: Brassica napus, pre-emergence, preemergence, read-out: Oilseed Rape plant response rating
Outline: as §1

[8] = test system: large (Lg) crabgrass; test: Test A preemergence; format: in vivo, Digitaria sanguinalis; settings: Digitaria sanguinalis, pre-emergence, 240 h, 0 to 100 scale where 0 is no effect and 100 is complete control
Outline: as §2

[9] = test system: velvetleaf; test: Test A preemergence; format: in vivo, Abutilon theophrasti
Outline: as §2

[10] = test system: chickweed; test: Test C postemergence; format: in vivo, Stellaria media; settings: Stellaria media, post-emergence
Outline: as §1

[11] = test system: velvetleaf; test: Test C preemergence; format: in vivo, Abutilon theophrasti; settings: Abutilon theophrasti, pre-emergence, preemergence, read-out: Velvetleaf plant response rating
Outline: as §1

[12] = test system: galium; test: Test C preemergence; format: in vivo, Galium aparine; settings: Galium, pre-emergence
Outline: as §1

[13] = test system: corn; test: Test C postemergence; format: in vivo, Zea mays; settings: Zea mays, post-emergence
Outline: as §1

[14] = test system: Italian ryegrass; test: Test C preemergence; format: in vivo, Lolium multiflorum; settings: Lolium multiflorum, pre-emergence, preemergence, read-out: Ryegrass, Italian plant response rating
Outline: as §1

[15] = test system: wheat, winter; test: Test C postemergence; format: in vivo, Triticum aestivum
Outline: as §1

[16] = 16 g ai/ha, scale 0 to 100 (0 no effect, 100 complete control)
[17] = 62 g ai/ha, scale 0 (no effect) to 100 (complete control)
[18] = 125 g ai/ha, scale 0 (no effect) to 100 (complete control)

SMILES: FC(F)(F)c1cn(-c2ccccc2Oc2ncc(Cl)cn2)nn1 [Compound 166, 5-chloro-2-[2-[4-(trifluoromethyl)-1H-1,2,3-triazol-1-yl]phenoxy]pyrimidine]
- pest or weed control at 16 g/ha ([1]; 16 g ai/ha, postemergence, 0 is no effect, 100 is complete control, read-out: Plant response rating (0 to 100), Crabgrass, Large): 5%
- pest or weed control at 31 g/ha ([1]; 31 g ai/ha, postemergence, visual rating, scale 0 to 100 (0 no effect, 100 complete control), 13 to 15 days, read-out: Crabgrass, Large plant response rating): 5%
- pest or weed control at 125 g/ha ([1]; 125 g ai/ha, postemergence, visual rating, scale 0 to 100 (0 no effect, 100 complete control), read-out: Plant response rating, Crabgrass, Large): 15%
- pest or weed control at 62 g/ha ([1]; Postemergence, 62 g ai/ha, scale 0 to 100 (0 no effect, 100 complete control), read-out: Plant response rating, Crabgrass, Large): 10%
- pest or weed control at 250 g/ha [2]: 95%
- pest or weed control at 500 g/ha ([3]; 500 g ai/ha, read-out: Plant response rating, Pigweed): 100%
- pest or weed control at 125 g/ha ([3]; 240 h, 125 g ai/ha, read-out: Pigweed plant response rating): 100%
- pest or weed control at 16 g/ha [4, 16]: 15%
- pest or weed control at 62 g/ha [4, 17]: 98%
- pest or weed control at 125 g/ha [4, 18]: 100%
- pest or weed control at 125 g/ha ([5]; 125 g ai/ha, read-out: Plant response rating, Foxtail, Giant): 100%
- pest or weed control at 500 g/ha ([5]; 500 g ai/ha, read-out: Foxtail, Giant plant response rating): 100%
- pest or weed control at 16 g/ha [6, 16]: 5%
- pest or weed control at 62 g/ha [6, 17]: 85%
- pest or weed control at 125 g/ha [6, 18]: 95%
- plant injury at 16 g/ha [7, 16]: 90%
- plant injury at 62 g/ha [7, 17]: 100%
- plant injury at 125 g/ha [7, 18]: 100%
- pest or weed control at 125 g/ha ([8]; 125 g ai/ha, read-out: Plant response rating, Crabgrass, Large): 100%
- pest or weed control at 500 g/ha ([8]; 500 g ai/ha, read-out: Crabgrass, Large plant response rating): 100%
- Velvetleaf plant response rating (0 to 100 scale) ([9]; 125 g ai/ha): 100
- pest or weed control at 500 g/ha ([9]; Abutilon theophrasti, pre-emergence, 240 h, 500 g ai/ha, 0 to 100 scale where 0 is no effect and 100 is complete control, read-out: Velvetleaf plant response rating): 100%
- pest or weed control at 16 g/ha ([10]; 16 g ai/ha, postemergence, 0 is no effect, 100 is complete control, read-out: Plant response rating (0 to 100), Chickweed): 60%
- pest or weed control at 31 g/ha ([10]; 31 g ai/ha, postemergence, visual rating, scale 0 to 100 (0 no effect, 100 complete control), 13 to 15 days, read-out: Chickweed plant response rating): 80%
- pest or weed control at 125 g/ha ([10]; 125 g ai/ha, postemergence, visual rating, scale 0 to 100 (0 no effect, 100 complete control), read-out: Plant response rating, Chickweed): 95%
- pest or weed control at 62 g/ha ([10]; Postemergence, 62 g ai/ha, scale 0 to 100 (0 no effect, 100 complete control), read-out: Plant response rating, Chickweed): 90%
- pest or weed control at 16 g/ha [11, 16]: 80%
- pest or weed control at 62 g/ha [11, 17]: 100%
- pest or weed control at 125 g/ha [11, 18]: 100%
- pest or weed control at 16 g/ha ([12]; 16 g ai/ha, preemergence, scale 0 to 100 (0 no effect, 100 complete control), read-out: Galium plant response rating): 98%
- pest or weed control at 62 g/ha ([12]; 62 g ai/ha, preemergence, scale 0 (no effect) to 100 (complete control), read-out: Galium plant response rating): 95%
- pest or weed control at 125 g/ha ([12]; 125 g ai/ha, preemergence, scale 0 (no effect) to 100 (complete control), read-out: Galium plant response rating): 95%
- pest or weed control at 31 g/ha ([12]; Preemergence, 31 g ai/ha, scale 0 to 100, 0 no effect, 100 complete control, read-out: Plant response rating, Galium): 100%
- plant injury at 16 g/ha ([13]; 16 g ai/ha, postemergence, 0 is no effect, 100 is complete control, read-out: Plant response rating (0 to 100), Corn): 5%
- plant injury at 31 g/ha ([13]; 31 g ai/ha, postemergence, visual rating, scale 0 to 100 (0 no effect, 100 complete control), 13 to 15 days, read-out: Corn plant response rating): 5%
- Corn plant response rating (crop injury, 0 = no effect, 100 = complete kill) at 125 g/ha ([13]; 125 g ai/ha, postemergence, visual rating, scale 0 to 100 (0 no effect, 100 complete control)): 15%
- Corn plant response rating (crop injury, 0 = no effect, 100 = complete kill) at 62 g/ha ([13]; Postemergence, 62 g ai/ha, scale 0 to 100 (0 no effect, 100 complete control)): 10%
- pest or weed control at 16 g/ha [14, 16]: 5%
- pest or weed control at 62 g/ha [14, 17]: 90%
- pest or weed control at 125 g/ha [14, 18]: 90%
- Wheat plant response rating ([15]; 31 g ai/ha, postemergence, visual rating, scale 0 to 100 (0 no effect, 100 complete control), 13 to 15 days): 5
- plant injury at 16 g/ha ([15]; Triticum aestivum, post-emergence, 16 g ai/ha, postemergence, 0 is no effect, 100 is complete control, read-out: Plant response rating (0 to 100), Wheat): 5%
- plant injury at 125 g/ha ([15]; Triticum aestivum, post-emergence, 125 g ai/ha, postemergence, visual rating, scale 0 to 100 (0 no effect, 100 complete control), read-out: Plant response rating, Wheat): 20%
- plant injury at 62 g/ha ([15]; Triticum aestivum, post-emergence, Postemergence, 62 g ai/ha, scale 0 to 100 (0 no effect, 100 complete control), read-out: Plant response rating, Wheat): 35%
